Data: article PMC6789118, “Structural basis for substrate specificity and regulation of nucleotide sugar transporters in the lipid bilayer” (Nature Communications, 2019)
Where a chain is given by its changes, count along the chain named.

Experiments:
Vrg4 Y281F variant = target: T1, Vrg4 Y281F variant (Saccharomyces cerevisiae, UniProt P40107, Y281F); assay: IC50 competition of 3H-GMP uptake into proteoliposomes, Y281F variant; assay type: biochemical
T1 construct: GFP (cleaved yes); made in house; host or cells: S. cerevisiae strain BJ5460
T1 sequence (P40107 whole entry Y281F): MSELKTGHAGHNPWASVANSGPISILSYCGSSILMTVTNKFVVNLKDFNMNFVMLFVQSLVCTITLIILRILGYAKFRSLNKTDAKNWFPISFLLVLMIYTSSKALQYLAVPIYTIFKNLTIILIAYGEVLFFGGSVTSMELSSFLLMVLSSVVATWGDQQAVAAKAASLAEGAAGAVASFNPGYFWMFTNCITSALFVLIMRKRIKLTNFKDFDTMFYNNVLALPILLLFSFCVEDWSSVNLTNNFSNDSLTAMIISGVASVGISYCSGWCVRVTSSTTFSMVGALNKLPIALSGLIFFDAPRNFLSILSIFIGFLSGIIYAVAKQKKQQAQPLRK
Procedure: (§1) Vrg4 was reconstituted into liposomes made from yeast polar lipids using the dilution method into preformed lipid vesicles. Chloroform was removed from yeast polar lipids (Avanti polar lipids) through the use of a rotary evaporator to obtain a thin film. The lipids were washed twice in pentane and then resuspended at 5 mg ml^−1 in lipid buffer (20 mM HEPES pH 7.5, 100 mM KCl). These lipid vesicles were frozen and thawed twice in liquid nitrogen and stored at −80 °C until required. For reconstitution, the lipids were thawed and then extruded first through a 0.8-μm filter and then through a 0.4-μm filter. Purified Vrg4 in DM (at 0.5 μg μl^−1 concentration) was added to the lipids at a final lipid:protein ratio of 80:1 and incubated for 1 h at room temperature, then for a further 1 h on ice; for the no-protein liposome control, the same volume of gel filtration buffer containing 0.3% DM was added. […] The amount of protein (both wild-type and mutant variants) reconstituted into the lipids was quantified by SDS–PAGE and densitometry.
(§2) To analyse transport activity, proteoliposomes were thawed and the desired concentration of internal substrate was added (typically 0.5 mM for mutant variant analysis). […] The amount of GMP transported inside the liposomes was calculated by scintillation counting in Ultima Gold (Perkin Elmer) […]

Vrg4 S266A variant = target: T2, Vrg4 S266A variant (Saccharomyces cerevisiae, UniProt P40107, S266A); assay: IC50 competition of 3H-GMP uptake into proteoliposomes, S266A variant; assay type: biochemical; conditions: in words
T2 construct: GFP (cleaved yes); made in house; host or cells: S. cerevisiae strain BJ5460
T2 sequence (P40107 whole entry S266A): as the sequence (P40107 whole entry Y281F) above, with S266A, F281Y counted along it
Procedure: as §1, §2

Vrg4 S269A variant = target: T3, Vrg4 S269A variant (Saccharomyces cerevisiae, UniProt P40107, S269A); assay: IC50 competition of 3H-GMP uptake into proteoliposomes, S269A variant; assay type: biochemical; conditions: S269A variant (removal of S269); in words
T3 construct: GFP (cleaved yes); made in house; host or cells: S. cerevisiae strain BJ5460
T3 sequence (P40107 whole entry S269A): as the sequence (P40107 whole entry Y281F) above, with S269A, F281Y counted along it
Procedure: as §1, §2

Vrg4 N220A variant = target: T4, Vrg4 N220A variant (Saccharomyces cerevisiae, UniProt P40107, N220A); assay: IC50 competition of 3H-GMP uptake into proteoliposomes, N220A variant; assay type: biochemical
T4 construct: GFP (cleaved yes); made in house; host or cells: S. cerevisiae strain BJ5460
T4 sequence (P40107 whole entry N220A): as the sequence (P40107 whole entry Y281F) above, with N220A, F281Y counted along it
Procedure: as §1, §2

Vrg4 N221A variant = target: T5, Vrg4 N221A variant (Saccharomyces cerevisiae, UniProt P40107, N221A); assay: IC50 competition of 3H-GMP uptake into proteoliposomes, N221A variant; assay type: biochemical
T5 construct: GFP (cleaved yes); made in house; host or cells: S. cerevisiae strain BJ5460
T5 sequence (P40107 whole entry N221A): as the sequence (P40107 whole entry Y281F) above, with N221A, F281Y counted along it
Procedure: as §1, §2

Vrg4 [1] = target: T6, Vrg4 (Saccharomyces cerevisiae, UniProt P40107); assay: Liposome-based transport rates under different antiport conditions; assay type: biochemical; conditions: 22 °C, rank among antiport conditions
T6 construct: GFP (cleaved yes); made in house; host or cells: S. cerevisiae strain BJ5460
T6 sequence (P40107 1-337): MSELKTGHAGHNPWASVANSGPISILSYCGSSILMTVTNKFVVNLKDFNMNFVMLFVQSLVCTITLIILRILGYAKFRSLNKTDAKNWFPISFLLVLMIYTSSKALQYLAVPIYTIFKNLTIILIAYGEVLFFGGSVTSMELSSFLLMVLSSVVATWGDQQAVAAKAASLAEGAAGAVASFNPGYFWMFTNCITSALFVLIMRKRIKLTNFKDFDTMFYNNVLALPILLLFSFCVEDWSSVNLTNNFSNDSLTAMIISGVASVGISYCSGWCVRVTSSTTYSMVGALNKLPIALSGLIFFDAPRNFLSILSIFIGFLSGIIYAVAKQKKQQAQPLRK
Procedure: as §1, §2

Vrg4 Y281A variant = target: T7, Vrg4 Y281A variant (Saccharomyces cerevisiae, UniProt P40107, Y281A); assay: Thermal stability in the presence of ligand, Y281A variant; assay type: binding; conditions: 1 mM GMP, N=3
T7 construct: GFP (cleaved yes); made in house; host or cells: S. cerevisiae strain BJ5460
T7 sequence (P40107 whole entry Y281A): as the sequence (P40107 whole entry Y281F) above, with F281A counted along it
Procedure: (§3) Thermal stability of protein samples was analysed using a Prometheus NT.48 (NanoTemper Technologies)[39]. The proteins were diluted to a final concentration of 0.7 mg ml^−1 into buffer containing 20 mM Hepes, pH 7.5, 50 mM KCl, 2 mM magnesium sulphate and 0.03% (w/v) DDM or 0.3% DM. Thermal measurements were carried out in a range from 20 to 95 °C with 1 °C per min steps. The resulting melting curves were generated by plotting the first derivative of the fluorescence ratio at 330 nm/350 nm (excitation 280 nm) against temperature. For stability in the presence of ligand (GMP) the ligand was added to the sample at a final concentration of 0.5 mM and the sample was incubated at room temperature for 5 min prior to analysis. For the sample in liposomes, reconstituted Vrg4, at a protein concentration of 0.4 mg ml^−1, in yeast polar lipids were prepared in 20 mM Hepes, pH 7.5, 50 mM KCl, 2 mM magnesium sulphate and extruded through a 0.4 μm membrane prior to analysis. For the solubilised liposome sample, liposomes were solubilised in 1.5% DDM for one hour and centrifuged at 100,000 × g for 30 min prior to analysis.

Vrg4 K118A variant [2] = target: T8, Vrg4 K118A variant (Saccharomyces cerevisiae, UniProt P40107, K118A); assay: Thermal stability in the presence of ligand, K118A variant; assay type: binding; conditions: 1 mM GMP
T8 construct: GFP (cleaved yes); made in house; host or cells: S. cerevisiae strain BJ5460
T8 sequence (P40107 whole entry K118A): as the sequence (P40107 whole entry Y281F) above, with K118A, F281Y counted along it
Procedure: as §3

Vrg4 wild type (WT) = system: Vrg4 wild type (WT); design: method as in PMID 29143814; conditions: WT Vrg4 in yeast polar lipid liposomes, 0.5 mM GMP inside, 3H-GMP uptake, cold competitor outside, 3 min; WT data published previously ref 10; cited from earlier work
Vrg4 [3] = target: T6, Vrg4; design: method as in PMID 29143814; conditions: GDP-mannose:GMP compared with GMP:GMP in liposome-based assays ref 10; cited from earlier work
Vrg4 K118A variant [4] = target: T9, Vrg4 K118A variant (Saccharomyces cerevisiae, UniProt P40107 1-337, K118A); assay: cell-based or functional assay
T9 sequence: T6 sequence (P40107 1-337) with K118A

Nc1nc2c(ncn2[C@@H]2O[C@H](COP(=O)(O)O)[C@@H](O)[C@H]2O)c(=O)[nH]1 [GMP, guanine monophosphate]
IC50 (Vrg4 Y281F variant): 23 µM | IC50 value for GMP transport compared with WT (Vrg4 S266A variant): significant increase | change in the IC50 compared with WT (Vrg4 S269A variant): did not result in any significant change | IC50 (Vrg4 N220A variant): 12 µM | IC50 (Vrg4 N221A variant): 22 µM | transport rate (Vrg4 [1]; GMP:AMP antiport, 1 mM AMP inside, 20 μM GMP outside): slowest | thermal stabilisation of the protein by ligand (Vrg4 Y281A variant): not stabilised | thermal stabilisation of the protein by ligand (Vrg4 K118A variant [2]): stabilised to a similar extent as WT Vrg4 | IC50 (Vrg4 wild type (WT)): 7 µM

Nc1ncnc2c1ncn2[C@@H]1O[C@H](COP(=O)(O)O)[C@@H](O)[C@H]1O [AMP]
affinity compared with WT (Vrg4 N220A variant; N220A variant, IC50 analysis, in words): markedly reduced | IC50 (Vrg4 N221A variant): 27 µM | IC50 (Vrg4 wild type (WT)): 50 µM

Nc1nc2c(ncn2[C@@H]2O[C@H](COP(=O)(O)OP(=O)(O)O[C@H]3O[C@H](CO)[C@@H](O)[C@H](O)[C@@H]3O)[C@@H](O)[C@H]2O)c(=O)[nH]1 [GDP-mannose]
affinity of the variant compared with wild type (Vrg4 Y281F variant; Y281F variant, IC50 analysis, in words): remains the same as wild type | affinity compared with WT (Vrg4 S266A variant; IC50 analysis): only slightly reduced | change in the IC50 compared with WT (Vrg4 S269A variant): did not result in any significant change | transport rate (Vrg4 [1]; GDP-mannose:GDP-mannose antiport (transported against itself), 0.5 mM inside, 20 μM outside): fastest | IC50 (Vrg4 wild type (WT)): 7.6 µM | transport efficiency (Vrg4 [3]): more efficient

B1: Vrg4, GDP-mannose transporter from Saccharomyces cerevisiae (wild type) (natural protein)
chain: T6 sequence (P40107 1-337)
dominant negative assay: transport of 3H-GMP into liposomes reconstituted with equimolar WT and K118A (also at 75 and 25% WT), relative to WT alone (Vrg4 K118A variant [4]): ~75%
